In series [1] the target is human phosphodiesterase III (PDE III). As to conditions: cited from earlier work.
The conditions of series [2]: cited from earlier work.
In series [3] the test system is human phosphodiesterase III (PDE III). Put plainly: PDE III inhibition. The series is classed as biochemical. As to conditions: versus anagrelide.
Series [4] is described as follows: pharmacokinetics in vivo (half-life, exposure, first pass). Further details: species or system human. As to conditions: after anagrelide treatment.
Series [5] deals with TPO-induced megakaryocytopoiesis. The conditions noted are these: cited from earlier work.
In series [6] the test system is erythroid or myelomonocytic differentiation. As to conditions: stimulated by erythropoietin or granulocyte-macrophage colony-stimulating factor; cited from earlier work.

The values below come from US20110071173A1, “IMIDAZOQUINAZOLINE DERIVATIVES AS ANAGRELIDE ANALOGUES FOR THE TREATMENT OF MYELOPROLIFIC DISEASES AND THROMBOTIC DISEASES” (Shire LLC, priority 2008, published 2011).

Usually IC50 stands for the concentration at which inhibition is half-maximal. By half-life is commonly meant the time in which the quantity being followed falls by half.

With `Cc1[nH]c(=O)c(C#N)cc1-c1ccncc1` [milrinone], in series [1], the IC50 is 0.17 to 0.35 µM.
In the case of `O=C1NC2=Nc3ccc(Cl)c(Cl)c3CN2C1O` (stereo not drawn) [3-hydroxyanagrelide], the half-life in series [2] (typical) is 2.5 h. In series [3], the “potency as PDE III inhibitor relative to anagrelide” value was “over 40 fold”. Further, the “exposure in vivo relative to parent drug” value in series [4] is 2-3 fold. The “potency in inhibition of megakaryocytopoiesis relative to parent drug” value in series [5] (versus anagrelide) is on record as “no more potent than the parent drug”.
Turning to `O=C1CN2Cc3c(ccc(Cl)c3Cl)N=C2N1` [Anagrelide, 6,7-dichloro-1,5-dihydroimidazo[2,1-b]-quinazolin-2(3H)-one], the first pass effect in series [2] (in vivo) was above 50%. Also, the “effect on erythroid or myelomonocytic differentiation” value in series [6] is listed as “does not affect”. The IC50 in series [1] is around 0.029 µM; in series [5] (in vitro, human megakaryocytopoiesis, read-out: estimated IC50, inhibition of TPO-induced megakaryocytopoiesis) it was around 0.026 µM.
